Test [1] has as its system T1, LRRK2 14-3-3 binding.
T1 construct: host or cells: HEK293
The test is described as follows: Analysis of 14-3-3 binding in HEK293 cells overexpressing wild-type LRRK2. Format: cell-based, human. Conditions: 5 μM GZD-824 for 4 h, 1 μM GSK3357679A. Here is the method: This was undertaken as described previously. Briefly, wild-type FLAG-LRRK2 was transiently expressed in HEK293 cells with HA-Rab29. Twenty-four hours post-transfection cells were lysed with lysis buffer and snap frozen. LRRK2 was immunoprecipitated from 4 mg of lysate using 20 μl anti-FLAG-M2 agarose beads (Sigma, #A2220) for 2 h in rotation at +4°C. Immunoprecipitates were washed once with lysis buffer supplemented with 0.5% (by vol) Nonidet P-40 (instead of Triton X-100) and 0.5 M NaCl followed by two washes. Samples were eluted in 2× LDS sample buffer (20 µl per 10 µl of resin) and heated at 70°C for 10 min. After centrifugation through 0.22 µm Spin X filter, the eluted protein was subjected to immunoblotting with the indicated antibodies. An amount of 10 μl of the final reaction mixture was needed for the detection of binding of endogenous 14-3-3 and 1 µl for detection of LRRK2.

The subject of test [2] is Rab10 pThr73, LRRK2 [R1441C]. The test is described as follows: Rab10 Thr73 phospho-immunoblot in LRRK2[R1441C] knock-in MEFs. The class given is cell-based, mouse. Conditions: LRRK2[R1441C] knock-in MEFs, 2 h, read-out: LRRK2 [R1441C] Rab10 pThr73 IC50. Here is the method: (§1) Wild-type and homozygous LRRK2 [R1441C] (Jax, stock number: 009346), LRRK2[G2019S] Taconic, (model 13940) and LRRK2 [A2016T] (Jax, stock number: 021828)[7] knock-in MEF cells were isolated from littermate-matched mouse embryos on a C57BL/6J background at day E12.5 as described previously. MEFs were grown in Dulbecco's modified Eagle medium (DMEM GIBCO, #11960-085) containing 10% (by vol) fetal bovine serum (FBS), 2 mM L-glutamine, 100 U/ml penicillin, and […] streptomycin supplemented with non-essential amino acids and 1 mM sodium pyruvate. Human embryonic kidney 293 (HEK293) (#ATCC CRL-1573) and HeLa (#ATCC CCL-2) cells were purchased from American Tissue Culture Collection (ATCC) and cultured in DMEM containing 10% (by vol) FBS, 2 mM L-glutamine, 100 U/ml penicillin, and […] streptomycin. All cells were grown at 37°C, 5% (by vol) CO2 in a humidified atmosphere and regularly tested for mycoplasma contamination.
(§2) Inhibitors were dissolved in dimethyl sulfoxide (DMSO) (Sigma, #D2650). The inhibitors were diluted 1000× into cell medium. The equivalent volume of DMSO was added to the minus inhibitor controls. Experiments were performed in six-well plates, 10 cm dishes or 15 cm dishes depending on the amount of cell extract required.
(§3) Cells were lysed in an ice-cold lysis buffer containing 50 mM Tris–HCl, pH 7.4, 1% (by vol) Triton X-100, 10% (by vol) glycerol, 150 mM NaCl, 1 mM sodium orthovanadate, 50 mM NaF, 10 mM 2-glycerophosphate, 5 mM sodium pyrophosphate, 1 µg/ml microcystin-LR, and cOmplete EDTA-free protease inhibitor cocktail (Roche, #11836170001). Lysates were incubated on ice for 30 min and clarified by centrifugation at 20 800×g at 4°C for 20 min. Supernatants were quantified by Bradford assay (Bio-Rad Protein Assay Dye Reagent Concentrate #5000006) and samples prepared in 1× lithium dodecyl sulfate sample buffer final concentration (NuPage LDS Sample buffer 4× Invitrogen, #NP0008). When not deployed immediately, lysates were snap-frozen in liquid nitrogen and stored at −80°C until use. […]

The test system of test [3] is Rab10 pThr73, LRRK2 [G2019S]. The test can be described thus: Rab10 Thr73 phospho-immunoblot in LRRK2[G2019S] knock-in MEFs. The class given is cell-based, mouse. The following applies: LRRK2[G2019S] knock-in MEFs, 2 h, read-out: LRRK2 [G2019S] Rab10 pThr73 IC50. Here is the method: as §1, §2, §3
Background: A western blot detects proteins with antibodies after separation by electrophoresis.

Like-named read-outs stand apart in the source and are kept apart here.

As a reminder, the IC50 is the midpoint of a concentration-inhibition curve. For `Cc1ccc(C(=O)Nc2ccc(CN3CCN(C)CC3)c(C(F)(F)F)c2)cc1C#Cc1cnc2[nH]ncc2c1` [GZD-824], the “impact on 14-3-3 binding to LRRK2” value in test [1] is given as “no significant impact”. In addition, the 50% inhibitory concentration (IC50) in test [2] came to 262 nM; in test [2] (Mus musculus), 262 nM; in test [3], 233 nM; in test [3] (Mus musculus) it was 233 nM.

For the origin of these results see PMC8589421, “Impact of Type II LRRK2 inhibitors on signaling and mitophagy” (Biochemical Journal, 2021).
